ChEMBL document CHEMBL5303573, “Mapping human microbiome drug metabolism by gut bacteria and their genes” (Nature, 2019)

Conditions: victivallis vadensis, 12 h, 2 µM
Description: The drug is tested on Victivallis vadensis strain: ATCC BAA-548 for biotransformation. The drug concentrations were measured before and after a 12-h incubation by liquid-chromatography-coupled mass spectrometry (LC–MS)

SMILES	Bacterial Biotransformation
CCCc1nc(C(C)(C)O)c(C(=O)OCc2oc(=O)oc2C)n1Cc1ccc(-c2ccccc2-c2nnn[nH]2)cc1 [OLMESARTAN MEDOXOMIL]	Compound metabolized
CC(=O)Nc1ccc(OC(C)=O)cc1 [DIACETAMATE]	Compound metabolized
CC[C@H](C)C(=O)O[C@H]1C[C@@H](C)C=C2C=C[C@H](C)[C@H](CC[C@@H]3C[C@@H](O)CC(=O)O3)[C@H]21 [LOVASTATIN]	Compound NOT metabolized

Conditions: bacteroides thetaiotaomicron, 12 h, 2 µM
Description: The drug is tested on Bacteroides thetaiotaomicron strain: 7330 for biotransformation. The drug concentrations were measured before and after a 12-h incubation by liquid-chromatography-coupled mass spectrometry (LC–MS)

SMILES	Bacterial Biotransformation
CCCc1nc(C(C)(C)O)c(C(=O)OCc2oc(=O)oc2C)n1Cc1ccc(-c2ccccc2-c2nnn[nH]2)cc1 [OLMESARTAN MEDOXOMIL]	Compound metabolized
CC(=O)Nc1ccc(OC(C)=O)cc1 [DIACETAMATE]	Compound metabolized
CC[C@H](C)C(=O)O[C@H]1C[C@@H](C)C=C2C=C[C@H](C)[C@H](CC[C@@H]3C[C@@H](O)CC(=O)O3)[C@H]21 [LOVASTATIN]	Compound metabolized

Test: The drug is tested on Eubacterium ventriosum strain: ATCC27560 for biotransformation. The drug concentrations were measured before and after a 12-h incubation by liquid-chromatography-coupled mass spectrometry (LC–MS)
Assay type: ADME
Set-up: dose 2 uM, timepoint 0 vs 12 hours
Conditions: 2 µM

SMILES	Bacterial Biotransformation
CCCc1nc(C(C)(C)O)c(C(=O)OCc2oc(=O)oc2C)n1Cc1ccc(-c2ccccc2-c2nnn[nH]2)cc1 [OLMESARTAN MEDOXOMIL]	Compound metabolized
CC(=O)Nc1ccc(OC(C)=O)cc1 [DIACETAMATE]	Compound metabolized
CC[C@H](C)C(=O)O[C@H]1C[C@@H](C)C=C2C=C[C@H](C)[C@H](CC[C@@H]3C[C@@H](O)CC(=O)O3)[C@H]21 [LOVASTATIN]	Compound NOT metabolized

Test: The drug is tested on Dorea formicigenerans strain: ATCC27755 for biotransformation. The drug concentrations were measured before and after a 12-h incubation by liquid-chromatography-coupled mass spectrometry (LC–MS)
Conditions: 2 µM

SMILES	Bacterial Biotransformation
CCCc1nc(C(C)(C)O)c(C(=O)OCc2oc(=O)oc2C)n1Cc1ccc(-c2ccccc2-c2nnn[nH]2)cc1 [OLMESARTAN MEDOXOMIL]	Compound metabolized
CC(=O)Nc1ccc(OC(C)=O)cc1 [DIACETAMATE]	Compound metabolized
CC[C@H](C)C(=O)O[C@H]1C[C@@H](C)C=C2C=C[C@H](C)[C@H](CC[C@@H]3C[C@@H](O)CC(=O)O3)[C@H]21 [LOVASTATIN]	Compound NOT metabolized

Test: The drug is tested on Blautia luti strain: DSM14534 for biotransformation. The drug concentrations were measured before and after a 12-h incubation by liquid-chromatography-coupled mass spectrometry (LC–MS)
Assay type: ADME
Set-up: dose 2 uM, timepoint 0 vs 12 hours
Conditions: 2 µM

SMILES	Bacterial Biotransformation
CC(=O)Nc1ccc(OC(C)=O)cc1 [DIACETAMATE]	Compound metabolized
CC[C@H](C)C(=O)O[C@H]1C[C@@H](C)C=C2C=C[C@H](C)[C@H](CC[C@@H]3C[C@@H](O)CC(=O)O3)[C@H]21 [LOVASTATIN]	Compound NOT metabolized

Conditions: segatella copri, 12 h, 2 µM
Description: The drug is tested on Prevotella copri strain: DSM18205 for biotransformation. The drug concentrations were measured before and after a 12-h incubation by liquid-chromatography-coupled mass spectrometry (LC–MS)

SMILES	Bacterial Biotransformation
CCCc1nc(C(C)(C)O)c(C(=O)OCc2oc(=O)oc2C)n1Cc1ccc(-c2ccccc2-c2nnn[nH]2)cc1 [OLMESARTAN MEDOXOMIL]	Compound metabolized
CC(=O)Nc1ccc(OC(C)=O)cc1 [DIACETAMATE]	Compound metabolized
CC[C@H](C)C(=O)O[C@H]1C[C@@H](C)C=C2C=C[C@H](C)[C@H](CC[C@@H]3C[C@@H](O)CC(=O)O3)[C@H]21 [LOVASTATIN]	Compound NOT metabolized

Conditions: bacteroides eggerthii, 12 h, 2 µM
Description: The drug is tested on Bacteroides eggerthii strain: DSM20697 for biotransformation. The drug concentrations were measured before and after a 12-h incubation by liquid-chromatography-coupled mass spectrometry (LC–MS)

SMILES	Bacterial Biotransformation
CC(=O)Nc1ccc(OC(C)=O)cc1 [DIACETAMATE]	Compound metabolized
CC[C@H](C)C(=O)O[C@H]1C[C@@H](C)C=C2C=C[C@H](C)[C@H](CC[C@@H]3C[C@@H](O)CC(=O)O3)[C@H]21 [LOVASTATIN]	Compound NOT metabolized

Conditions: akkermansia muciniphila, 12 h, 2 µM
Description: The drug is tested on Akkermansia muciniphila strain: ATCC BAA-835 for biotransformation. The drug concentrations were measured before and after a 12-h incubation by liquid-chromatography-coupled mass spectrometry (LC–MS)

SMILES	Bacterial Biotransformation
CCCc1nc(C(C)(C)O)c(C(=O)OCc2oc(=O)oc2C)n1Cc1ccc(-c2ccccc2-c2nnn[nH]2)cc1 [OLMESARTAN MEDOXOMIL]	Compound metabolized
CC(=O)Nc1ccc(OC(C)=O)cc1 [DIACETAMATE]	Compound metabolized
CC[C@H](C)C(=O)O[C@H]1C[C@@H](C)C=C2C=C[C@H](C)[C@H](CC[C@@H]3C[C@@H](O)CC(=O)O3)[C@H]21 [LOVASTATIN]	Compound NOT metabolized

Test: The drug is tested on Bacteroides vulgatus strain: ATCC8482 for biotransformation. The drug concentrations were measured before and after a 12-h incubation by liquid-chromatography-coupled mass spectrometry (LC–MS)
Conditions: phocaeicola vulgatus, 2 µM

SMILES	Bacterial Biotransformation
CCCc1nc(C(C)(C)O)c(C(=O)OCc2oc(=O)oc2C)n1Cc1ccc(-c2ccccc2-c2nnn[nH]2)cc1 [OLMESARTAN MEDOXOMIL]	Compound metabolized
CC(=O)Nc1ccc(OC(C)=O)cc1 [DIACETAMATE]	Compound metabolized
CC[C@H](C)C(=O)O[C@H]1C[C@@H](C)C=C2C=C[C@H](C)[C@H](CC[C@@H]3C[C@@H](O)CC(=O)O3)[C@H]21 [LOVASTATIN]	Compound metabolized

Test: The drug is tested on Clostridium asparagiforme strain: DSM15981 for biotransformation. The drug concentrations were measured before and after a 12-h incubation by liquid-chromatography-coupled mass spectrometry (LC–MS)
Assay type: ADME
Set-up: dose 2 uM, timepoint 0 vs 12 hours
Conditions: enterocloster asparagiformis, 2 µM

SMILES	Bacterial Biotransformation
CCCc1nc(C(C)(C)O)c(C(=O)OCc2oc(=O)oc2C)n1Cc1ccc(-c2ccccc2-c2nnn[nH]2)cc1 [OLMESARTAN MEDOXOMIL]	Compound metabolized
CC(=O)Nc1ccc(OC(C)=O)cc1 [DIACETAMATE]	Compound metabolized
CC[C@H](C)C(=O)O[C@H]1C[C@@H](C)C=C2C=C[C@H](C)[C@H](CC[C@@H]3C[C@@H](O)CC(=O)O3)[C@H]21 [LOVASTATIN]	Compound metabolized

Test: The drug is tested on Collinsella intestinalis strain: DSM13280 for biotransformation. The drug concentrations were measured before and after a 12-h incubation by liquid-chromatography-coupled mass spectrometry (LC–MS)
Conditions: 2 µM

SMILES	Bacterial Biotransformation
CC(=O)Nc1ccc(OC(C)=O)cc1 [DIACETAMATE]	Compound metabolized
CC[C@H](C)C(=O)O[C@H]1C[C@@H](C)C=C2C=C[C@H](C)[C@H](CC[C@@H]3C[C@@H](O)CC(=O)O3)[C@H]21 [LOVASTATIN]	Compound NOT metabolized

Test: The drug is tested on Bacteroides sp. WH2 strain: WH2 for biotransformation. The drug concentrations were measured before and after a 12-h incubation by liquid-chromatography-coupled mass spectrometry (LC–MS)
Conditions: bacteroides sp. wh2, 12 h, 2 µM

SMILES	Bacterial Biotransformation
CC(=O)Nc1ccc(OC(C)=O)cc1 [DIACETAMATE]	Compound metabolized
CC[C@H](C)C(=O)O[C@H]1C[C@@H](C)C=C2C=C[C@H](C)[C@H](CC[C@@H]3C[C@@H](O)CC(=O)O3)[C@H]21 [LOVASTATIN]	Compound NOT metabolized

Test: The drug is tested on Bacteroides fragilis strain: HMW610 for biotransformation. The drug concentrations were measured before and after a 12-h incubation by liquid-chromatography-coupled mass spectrometry (LC–MS)
Conditions: 2 µM

SMILES	Bacterial Biotransformation
CCCc1nc(C(C)(C)O)c(C(=O)OCc2oc(=O)oc2C)n1Cc1ccc(-c2ccccc2-c2nnn[nH]2)cc1 [OLMESARTAN MEDOXOMIL]	Compound metabolized
CC(=O)Nc1ccc(OC(C)=O)cc1 [DIACETAMATE]	Compound metabolized
CC[C@H](C)C(=O)O[C@H]1C[C@@H](C)C=C2C=C[C@H](C)[C@H](CC[C@@H]3C[C@@H](O)CC(=O)O3)[C@H]21 [LOVASTATIN]	Compound metabolized

Test: The drug is tested on Blautia hansenii strain: DSM20583 for biotransformation. The drug concentrations were measured before and after a 12-h incubation by liquid-chromatography-coupled mass spectrometry (LC–MS)
Conditions: 2 µM

SMILES	Bacterial Biotransformation
CC(=O)Nc1ccc(OC(C)=O)cc1 [DIACETAMATE]	Compound NOT metabolized

Test: The drug is tested on Bacteroides cellulosilyticus strain: DSM14838 for biotransformation. The drug concentrations were measured before and after a 12-h incubation by liquid-chromatography-coupled mass spectrometry (LC–MS)
Conditions: 2 µM

SMILES	Bacterial Biotransformation
CCCc1nc(C(C)(C)O)c(C(=O)OCc2oc(=O)oc2C)n1Cc1ccc(-c2ccccc2-c2nnn[nH]2)cc1 [OLMESARTAN MEDOXOMIL]	Compound metabolized
CC(=O)Nc1ccc(OC(C)=O)cc1 [DIACETAMATE]	Compound metabolized
CC[C@H](C)C(=O)O[C@H]1C[C@@H](C)C=C2C=C[C@H](C)[C@H](CC[C@@H]3C[C@@H](O)CC(=O)O3)[C@H]21 [LOVASTATIN]	Compound metabolized

Test: The drug is tested on Bifidobacterium breve strain: DSM20213 for biotransformation. The drug concentrations were measured before and after a 12-h incubation by liquid-chromatography-coupled mass spectrometry (LC–MS)
Conditions: 2 µM

SMILES	Bacterial Biotransformation
CCCc1nc(C(C)(C)O)c(C(=O)OCc2oc(=O)oc2C)n1Cc1ccc(-c2ccccc2-c2nnn[nH]2)cc1 [OLMESARTAN MEDOXOMIL]	Compound metabolized
CC(=O)Nc1ccc(OC(C)=O)cc1 [DIACETAMATE]	Compound metabolized
CC[C@H](C)C(=O)O[C@H]1C[C@@H](C)C=C2C=C[C@H](C)[C@H](CC[C@@H]3C[C@@H](O)CC(=O)O3)[C@H]21 [LOVASTATIN]	Compound metabolized

Conditions: bacteroides thetaiotaomicron, 12 h, 2 µM
Remark: another data set of the same source
Description: The drug is tested on Bacteroides thetaiotaomicron strain: VPI-5482 for biotransformation. The drug concentrations were measured before and after a 12-h incubation by liquid-chromatography-coupled mass spectrometry (LC–MS)

SMILES	Bacterial Biotransformation
CC(=O)Nc1ccc(OC(C)=O)cc1 [DIACETAMATE]	Compound metabolized
CC[C@H](C)C(=O)O[C@H]1C[C@@H](C)C=C2C=C[C@H](C)[C@H](CC[C@@H]3C[C@@H](O)CC(=O)O3)[C@H]21 [LOVASTATIN]	Compound NOT metabolized

Conditions: roseburia intestinalis, 12 h, 2 µM
Description: The drug is tested on Roseburia intestinalis strain: L1-82 for biotransformation. The drug concentrations were measured before and after a 12-h incubation by liquid-chromatography-coupled mass spectrometry (LC–MS)

SMILES	Bacterial Biotransformation
CC(=O)Nc1ccc(OC(C)=O)cc1 [DIACETAMATE]	Compound metabolized
CC[C@H](C)C(=O)O[C@H]1C[C@@H](C)C=C2C=C[C@H](C)[C@H](CC[C@@H]3C[C@@H](O)CC(=O)O3)[C@H]21 [LOVASTATIN]	Compound NOT metabolized

Test: The drug is tested on Subdoligranulum variabile strain: DSM15176 for biotransformation. The drug concentrations were measured before and after a 12-h incubation by liquid-chromatography-coupled mass spectrometry (LC–MS)
Conditions: 2 µM

SMILES	Bacterial Biotransformation
CCCc1nc(C(C)(C)O)c(C(=O)OCc2oc(=O)oc2C)n1Cc1ccc(-c2ccccc2-c2nnn[nH]2)cc1 [OLMESARTAN MEDOXOMIL]	Compound metabolized
CC(=O)Nc1ccc(OC(C)=O)cc1 [DIACETAMATE]	Compound metabolized
CC[C@H](C)C(=O)O[C@H]1C[C@@H](C)C=C2C=C[C@H](C)[C@H](CC[C@@H]3C[C@@H](O)CC(=O)O3)[C@H]21 [LOVASTATIN]	Compound NOT metabolized

Test: The drug is tested on Escherichia coli strain: BW25113 for biotransformation. The drug concentrations were measured before and after a 12-h incubation by liquid-chromatography-coupled mass spectrometry (LC–MS)
Conditions: 2 µM

SMILES	Bacterial Biotransformation
CCCc1nc(C(C)(C)O)c(C(=O)OCc2oc(=O)oc2C)n1Cc1ccc(-c2ccccc2-c2nnn[nH]2)cc1 [OLMESARTAN MEDOXOMIL]	Compound metabolized
CC[C@H](C)C(=O)O[C@H]1C[C@@H](C)C=C2C=C[C@H](C)[C@H](CC[C@@H]3C[C@@H](O)CC(=O)O3)[C@H]21 [LOVASTATIN]	Compound NOT metabolized
